Test results: publication PMC11124136, “New Thiazolidine-4-One Derivatives as SARS-CoV-2 Main Protease Inhibitors” (Pharmaceuticals, 2024)

Target: SARS-CoV-2 Mpro (Severe acute respiratory syndrome coronavirus 2, UniProt P0DTD1)
Assay: biochemical
Assay type: biochemical
Settings: for SARS-CoV-2 Mpro inhibition, result in words: inactivity = IC50 > 30 μM; for IC50: FRET assay, concentration reducing Mpro activity by 50%, mean ± SD of three independent experiments, highest concentration tested 30 μM

Compound	SARS-CoV-2 Mpro inhibition, result in words	IC50
O=C1CSC(c2ccc([N+](=O)[O-])cc2)N1CCc1ccccc1 (stereo not drawn) [Compound 4a, 2-(4-nitrophenyl)-3-(phenylethyl)-1,3-thiazolidin-4-one]	inactive	–
O=C1CSC(c2ccc([N+](=O)[O-])cc2)N1CCc1cccc(F)c1 (stereo not drawn) [Compound 4c, 2-(4-nitrophenyl)-3-(3-fluorophenylethyl)-1,3-thiazolidin-4-one]	inactive	–
COc1ccccc1CCN1C(=O)CSC1c1ccc([N+](=O)[O-])cc1 (stereo not drawn) [Compound 4e]	inactive	> 30 µM
COc1ccc(CCN2C(=O)CSC2c2ccc([N+](=O)[O-])cc2)cc1 (stereo not drawn) [Compound 4f]	inactive	> 30 µM
O=C1CSC(c2ccc([N+](=O)[O-])cc2)N1CCc1ccccc1Cl (stereo not drawn) [Compound 4g]	–	26 ± 4 µM
O=C1CSC(c2ccc([N+](=O)[O-])cc2)N1CCc1ccc(Cl)cc1 (stereo not drawn) [Compound 4i]	inactive	> 30 µM
